Species on record: Cavia porcellus
Experiment: Inhibition of histamine-inducedcontraction of the isolated guinea-pig ileum
Format: functional
Conditions: read-out: pA2 (converted)

| SMILES | Kb |
| --- | --- |
| CC(C)(C)c1ccc([C@@H](O)CCCN2CCC(C(O)(c3ccccc3)c3ccccc3)CC2)cc1 | 19.1 nM |
| CC(C)(C)c1ccc([C@H](O)CCCN2CCC(C(O)(c3ccccc3)c3ccccc3)CC2)cc1 [R-TERFENADINE] | 24.5 nM |
| CC(C)(C)c1ccc(C(O)CCCN2CCC(C(O)(c3ccccc3)c3ccccc3)CC2)cc1 (stereo not drawn) [TERFENADINE] | 22.4 nM |
